Test system in the first data set: not listed separately
Kind of data set: Cytotoxicity against human HepG2 cells assessed as reduction in cell viability incubated for 72 hrs by MTT assay. Type of data set: toxicity, cell-based.
Details: not given
(In general: Tetrazolium assays rely on reduction of a dye to a coloured formazan, in cell work by metabolically active cells.)
What is called IC50 is the point on the concentration scale where inhibition reaches its midpoint. `O[C@H](CNCCNC(c1ccccc1)c1ccccc1)c1cc(C(F)(F)F)nc2c(C(F)(F)F)cccc12`: the IC50 at 72 h is 6400 nM.

With `O[C@@H](CNCCCC(F)(F)F)c1cc(C(F)(F)F)nc2c(C(F)(F)F)cccc12`, the IC50 at 72 h was found to be 29700 nM.

As to `O[C@H](CNCC1CC1)c1cc(C(F)(F)F)nc2c(C(F)(F)F)cccc12`, the IC50 at 72 h came to 4300 nM.

In a further data set the test system is Plasmodium falciparum. As to the kind of experiment: Selectivity index, ratio of IC50 for antiplasmodial activity against CQ-susceptible Plasmodium falciparum 3D7 to IC50 for antiplasmodial activity CQ-resistant Plasmodium falciparum W2 by HRP2-ELISA. Type of data set: functional.
Details: not given
Regarding `O[C@H](CNCCNC(c1ccccc1)c1ccccc1)c1cc(C(F)(F)F)nc2c(C(F)(F)F)cccc12`, the Ratio IC50 amounted to 1.7.

Regarding `O[C@@H](CNCCCC(F)(F)F)c1cc(C(F)(F)F)nc2c(C(F)(F)F)cccc12`, the Ratio IC50 was 1.

For the compound `O[C@H](CNCC1CC1)c1cc(C(F)(F)F)nc2c(C(F)(F)F)cccc12`, the Ratio IC50 is 0.8.

Test system in the next data set: not listed separately
As to the kind of experiment: Selectivity index, ratio of IC50 for cytotoxicity against human HepG2 cells to IC50 for antiplasmodial activity against Plasmodium falciparum 3D7 infected in human erythrocytes by HRP2-ELISA. It counts as toxicity, cell-based. The following applies: read-out: Ratio IC50. A general note: An ELISA detects its analyte on a solid surface through an enzyme-linked reagent.
For `O[C@H](CNCCNC(c1ccccc1)c1ccccc1)c1cc(C(F)(F)F)nc2c(C(F)(F)F)cccc12`, the selectivity ratio came to 268.

As to `O[C@@H](CNCCCC(F)(F)F)c1cc(C(F)(F)F)nc2c(C(F)(F)F)cccc12`, the selectivity ratio is 130.

As to `O[C@H](CNCC1CC1)c1cc(C(F)(F)F)nc2c(C(F)(F)F)cccc12`, the selectivity ratio worked out at 333.

The test system of a further data set is Plasmodium falciparum. Kind of data set: Antiplasmodial activity CQ-resistant Plasmodium falciparum W2 infected in human erythrocytes assessed as inhibition of parasite growth measured after 72 hrs by HRP2-ELISA. Type of data set: functional, organism-based. The following applies: W2, Erythrocyte.
As for `O[C@H](CNCCNC(c1ccccc1)c1ccccc1)c1cc(C(F)(F)F)nc2c(C(F)(F)F)cccc12`, the IC50 turned out to be 14.1 nM.

In the case of `O[C@@H](CNCCCC(F)(F)F)c1cc(C(F)(F)F)nc2c(C(F)(F)F)cccc12`, the IC50 amounted to 229 nM.

With `O[C@H](CNCC1CC1)c1cc(C(F)(F)F)nc2c(C(F)(F)F)cccc12`, the IC50 was 15.8 nM.

Test system in the next data set: not listed separately
As to the kind of experiment: Cytotoxicity against human HFF cells assessed as reduction in cell viability incubated for 72 hrs by MTT assay. Type of data set: toxicity, cell-based.
Details: not given
As to `O[C@H](CNCCNC(c1ccccc1)c1ccccc1)c1cc(C(F)(F)F)nc2c(C(F)(F)F)cccc12`, the IC50 at 72 h came to 16600 nM.

Consider `O[C@@H](CNCCCC(F)(F)F)c1cc(C(F)(F)F)nc2c(C(F)(F)F)cccc12`, for which the IC50 at 72 h is 14600 nM.

On to `O[C@H](CNCC1CC1)c1cc(C(F)(F)F)nc2c(C(F)(F)F)cccc12`, for which the IC50 at 72 h was found to be 18500 nM.

Test system in the next data set: not listed separately
Kind of data set: Cytotoxicity against Chinese hamster CHO cells assessed as reduction in cell viability incubated for 24 hrs by MTT assay.
Details: not given
It counts as toxicity, cell-based, Cricetulus griseus.
On to `O[C@H](CNCCNC(c1ccccc1)c1ccccc1)c1cc(C(F)(F)F)nc2c(C(F)(F)F)cccc12`, for which the IC50 at 24 h was 9000 nM.

As for `O[C@@H](CNCCCC(F)(F)F)c1cc(C(F)(F)F)nc2c(C(F)(F)F)cccc12`, the IC50 at 24 h is 45400 nM.

As to `O[C@H](CNCC1CC1)c1cc(C(F)(F)F)nc2c(C(F)(F)F)cccc12`, the IC50 at 24 h was found to be 31000 nM.

Test system in another data set: not listed separately
Kind of data set: Cytotoxicity against human THP-1 cells assessed as reduction in cell viability incubated for 72 hrs by MTT assay. Type of data set: toxicity, cell-based.
Details: not given
On to `O[C@H](CNCCNC(c1ccccc1)c1ccccc1)c1cc(C(F)(F)F)nc2c(C(F)(F)F)cccc12`, for which the IC50 at 72 h was 8900 nM.

Consider `O[C@@H](CNCCCC(F)(F)F)c1cc(C(F)(F)F)nc2c(C(F)(F)F)cccc12`, for which the IC50 at 72 h turned out to be 32800 nM.

In the case of `O[C@H](CNCC1CC1)c1cc(C(F)(F)F)nc2c(C(F)(F)F)cccc12`, the IC50 at 72 h came out at 6900 nM.

A further data set concerns Plasmodium falciparum. Kind of data set: Antiplasmodial activity against CQ-resistant Plasmodium falciparum W2 assessed as inhibition of parasite growth measured after 48 hrs by SYBR Green 1 dye based fluorescence assay. Type of data set: functional, organism-based. The settings on record: W2, 48 h.
As to `O[C@H](CNCCNC(c1ccccc1)c1ccccc1)c1cc(C(F)(F)F)nc2c(C(F)(F)F)cccc12`, the IC50 stood at 29.6 nM.

For `O[C@@H](CNCCCC(F)(F)F)c1cc(C(F)(F)F)nc2c(C(F)(F)F)cccc12`, the IC50 was found to be 61 nM.

On to `O[C@H](CNCC1CC1)c1cc(C(F)(F)F)nc2c(C(F)(F)F)cccc12`, for which the IC50 came to 4.1 nM.

For a further data set, the system named is Plasmodium falciparum. Kind of data set: Antiplasmodial activity against CQ-susceptible Plasmodium falciparum 3D7 assessed as inhibition of parasite growth measured after 48 hrs by SYBR Green 1 dye based fluorescence assay. It counts as functional, organism-based. The settings on record: 3D7, 48 h.
In the case of `O[C@H](CNCCNC(c1ccccc1)c1ccccc1)c1cc(C(F)(F)F)nc2c(C(F)(F)F)cccc12`, the 50% inhibitory concentration (IC50) stood at 35.2 nM.

Regarding `O[C@@H](CNCCCC(F)(F)F)c1cc(C(F)(F)F)nc2c(C(F)(F)F)cccc12`, the IC50 was 57.6 nM.

As to `O[C@H](CNCC1CC1)c1cc(C(F)(F)F)nc2c(C(F)(F)F)cccc12`, the IC50 is 4.1 nM.

Test system in another data set: not listed separately
As to the kind of experiment: Selectivity index, ratio of IC50 for cytotoxicity against human THP-1 cells to IC50 for antiplasmodial activity against Plasmodium falciparum 3D7 infected in human erythrocytes by HRP2-ELISA. Type of data set: toxicity, cell-based. The following applies: read-out: Ratio IC50.
With `O[C@H](CNCCNC(c1ccccc1)c1ccccc1)c1cc(C(F)(F)F)nc2c(C(F)(F)F)cccc12`, the selectivity ratio was found to be 372.

`O[C@@H](CNCCCC(F)(F)F)c1cc(C(F)(F)F)nc2c(C(F)(F)F)cccc12`: the selectivity ratio amounted to 144.

On to `O[C@H](CNCC1CC1)c1cc(C(F)(F)F)nc2c(C(F)(F)F)cccc12`, for which the selectivity ratio stood at 534.

Test system in the next data set: not listed separately
Kind of data set: Selectivity index, ratio of IC50 for human HFF cells to IC50 for antiplasmodial activity against Plasmodium falciparum 3D7 infected in human erythrocytes by HRP2-ELISA. It counts as toxicity, cell-based. The settings on record: read-out: Ratio IC50.
`O[C@H](CNCCNC(c1ccccc1)c1ccccc1)c1cc(C(F)(F)F)nc2c(C(F)(F)F)cccc12`: the selectivity ratio is 694.

Take `O[C@@H](CNCCCC(F)(F)F)c1cc(C(F)(F)F)nc2c(C(F)(F)F)cccc12`: the selectivity ratio was found to be 64.

In the case of `O[C@H](CNCC1CC1)c1cc(C(F)(F)F)nc2c(C(F)(F)F)cccc12`, the selectivity ratio came out at 1430.

For another data set, the system named is Plasmodium falciparum. As to the kind of experiment: Selectivity index, ratio of IC50 for antiplasmodial activity against CQ-susceptible Plasmodium falciparum 3D7 to IC50 for antiplasmodial activity against CQ-resistant Plasmodium falciparum W2 by SYBR Green 1 dye based fluorescence assay. It counts as functional.
Details: not given
On to `O[C@H](CNCCNC(c1ccccc1)c1ccccc1)c1cc(C(F)(F)F)nc2c(C(F)(F)F)cccc12`, for which the Ratio IC50 turned out to be 1.2.

In the case of `O[C@@H](CNCCCC(F)(F)F)c1cc(C(F)(F)F)nc2c(C(F)(F)F)cccc12`, the Ratio IC50 was determined as 0.9.

As for `O[C@H](CNCC1CC1)c1cc(C(F)(F)F)nc2c(C(F)(F)F)cccc12`, the Ratio IC50 amounted to 1.

The test system of the next data set is Plasmodium falciparum. Kind of data set: Antiplasmodial activity against CQ-susceptible Plasmodium falciparum 3D7 infected in human erythrocytes assessed as inhibition of parasite growth measured after 72 hrs by HRP2-ELISA. Type of data set: functional, organism-based. The settings on record: 3D7, Erythrocyte.
As to `O[C@H](CNCCNC(c1ccccc1)c1ccccc1)c1cc(C(F)(F)F)nc2c(C(F)(F)F)cccc12`, the IC50 was found to be 23.9 nM.

As for `O[C@@H](CNCCCC(F)(F)F)c1cc(C(F)(F)F)nc2c(C(F)(F)F)cccc12`, the IC50 turned out to be 227 nM.

Regarding `O[C@H](CNCC1CC1)c1cc(C(F)(F)F)nc2c(C(F)(F)F)cccc12`, the IC50 turned out to be 12.9 nM.

Test system in a further data set: not listed separately
Kind of data set: Selectivity index, ratio of IC50 for cytotoxicity against chinese hamster CHO cells to IC50 for antiplasmodial activity against Plasmodium falciparum 3D7 infected in human erythrocytes by HRP2-ELISA. Type of data set: toxicity, cell-based. The settings on record: read-out: Ratio IC50.
For the compound `O[C@H](CNCCNC(c1ccccc1)c1ccccc1)c1cc(C(F)(F)F)nc2c(C(F)(F)F)cccc12`, the selectivity ratio was 377.

Regarding `O[C@@H](CNCCCC(F)(F)F)c1cc(C(F)(F)F)nc2c(C(F)(F)F)cccc12`, the selectivity ratio was 199.

In the case of `O[C@H](CNCC1CC1)c1cc(C(F)(F)F)nc2c(C(F)(F)F)cccc12`, the selectivity ratio is 2400.

For the origin of these results see ChEMBL document CHEMBL5154649, “Design, synthesis, and characterization of novel aminoalcohol quinolines with strong in vitro antimalarial activity” (Eur J Med Chem, 2022).
